We go through one molecule from patent US20080300298A1, “Honokiol Derivates For the Treatment of Proliferative Disorders” (priority 2005, published 2008).

Each structure is given as a SMILES string.

For data set [1], the system named is MM.1S cells. Put plainly: TUNEL assay. Format: cell-based, human. The conditions noted are these: 10 ug/ml, 48 h. The procedure: (§1) Assessment of HNK-induced cytotoxicity against patient MM cells: […] A CD38^high fraction enriched for MM cells was determined in side and forward scatter panel in each case. The expression of CD138 on gated cells was also evaluated. After HNK-treatment for 48 h, cells were harvested and percentage of CD38^high cells with or without HNK-treatment was evaluated. Cell cycle analysis: MM cells cultured with HNK were harvested, fixed with 70% ethanol, and pretreated with 250 μg/mL of RNAse (Sigma, St Louis, Mo.). Cells were stained with propidium iodide (PI; 50 μg/mL; Sigma, St Louis, Mo.), and cell cycle profile was determined by using the program M software on an EPICS XL flow cytometer (Beckman Coulter, Hialeah, Fla.). […] Fluorescence intensity of TUNEL and APO 2.7 staining was determined using on EPICS XL flow cytometer. Cytotoxicity was determined by trypan blue exclusion assay. […] Cell growth and induction of apoptosis were determined both by colorimetric assay and now cytometric detection of APO2.7 after 48 h treatment. […] Proliferation of MM cells was then assessed by [^3H]-thymidine uptake. […] DNA synthesis was measured by [^3H]-thymidine uptake. […] Angiogenesis assay: The anti-angiogenic effect of HNK was determined using an In Vitro Angiogenesis Assay Kit (Chemicon, Temecula, Calif.). […] After 6 h, tube formation by endothelial cells was evaluated. […]

Data set [2] concerns RPM18226 cells. Kind of data set: TUNEL assay. Format: cell-based, human. The conditions noted are these: RPM18226, 10 ug/ml, 48 h. Here is the method: as §1
The test system of data set [3] is MM.1S cells. Put plainly: APO2.7 staining. The conditions noted are these: 10 ug/ml, 24 h. Format: cell-based, human. The procedure:
(§2) Assessment of HNK-induced cytotoxicity against patient MM cells: […] A CD38^high fraction enriched for MM cells was determined in side and forward scatter panel in each case. The expression of CD138 on gated cells was also evaluated. After HNK-treatment for 48 h, cells were harvested and percentage of CD38^high cells with or without HNK-treatment was evaluated. Cell cycle analysis: MM cells cultured with HNK were harvested, fixed with 70% ethanol, and pretreated with 250 μg/mL of RNAse (Sigma, St Louis, Mo.). Cells were stained with propidium iodide (PI; 50 μg/mL; Sigma, St Louis, Mo.), and cell cycle profile was determined by using the program M software on an EPICS XL flow cytometer (Beckman Coulter, Hialeah, Fla.). Detection of apoptosis and caspase-3 activity: TdT-mediated d-UTP nick end labeling (TUNEL) assay (MBL, Nagoya, Japan) and APO 2.7 staining (Immunotech, Marseille, France) were used to determine apoptosis. In brief, cells were fixed and permeabilzed by 4% paraformaldehyde and 70% ethanol, respectively, and incubated with a mixture of FITC-dUTP and TdT for 1 h at 37° C. for TUNEL assay. For detection of mitochondrial membrane protein 7A6 expression on apoptotic cells, cells were incubated with APO 2.7 reagent for 20 minutes. Fluorescence intensity of TUNEL and APO 2.7 staining was determined using on EPICS XL flow cytometer. Cytotoxicity was determined by trypan blue exclusion assay. […] Cell growth and induction of apoptosis were determined both by colorimetric assay and now cytometric detection of APO2.7 after 48 h treatment. […] Proliferation of MM cells was then assessed by [^3H]-thymidine uptake. […] DNA synthesis was measured by [^3H]-thymidine uptake. […] Angiogenesis assay: The anti-angiogenic effect of HNK was determined using an In Vitro Angiogenesis Assay Kit (Chemicon, Temecula, Calif.). […] After 6 h, tube formation by endothelial cells was evaluated. Direct toxicity of HNK against HUVEC was determined by calorimetric assay. […]

The subject of data set [4] is RPM18226 cells. Kind of data set: APO2.7 staining. It is filed as cell-based, human. The note with it: RPM18226, 10 ug/ml, 24 h. Here is the method: as §2
A further data set concerns normal PBMNCs. Put plainly: APO2.7 staining. It is filed as cell-based, human. The conditions noted are these: 15 ug/ml, 48 h, n=3. Here is the method: as §2
Another data set has as its system MCF-7 cells. Put plainly: Cell cycle assay (PI). It is filed as cell-based. The note with it: 24 hours (control 26%). The procedure:
(§3) Cell cycle assays: 5×10^6 cells were cultured in the appropriate culture media containing 10% FCS, and treated with either control vehicle or various concentrations of HNK as indicated for 24 h. Following treatment, the cells were harvested, fixed in methanol and stained with propidium iodide (PI, Abcam, Cambridge, Mass.). Flow cytometry was performed at the Flow Cytometry Core facility of Cedars-Sinai Medical Center, using FACScan (Becton Dickinson, Franklin Lakes, N.J.).
(§4) HNK slows cell cycle in breast cancer cell lines. The effects of HNK (10 μM or 30 μM HNK for 24 hours) on cell cycle were evaluated in MCF-7 and MDA-MB-231 cells. These doses of HNK are less than the LC50 for both cell lines. […] Expression of proteins involved in G1 cell-cycle regulation (massgue) was examined in MDA-MB-231 cells using Western analysis.

In a further data set the test system is MDA-MB-231 cells. Put plainly: Cell cycle assay (PI). Format: cell-based. The conditions noted are these: 24 hours (control 26%). The procedure: as §3, §4
In the next data set the test system is splenic B cells. Put plainly: CD40 mediated cytokine production of splenic B cells from treated mice. The note with it: honokiol 3 mg/day, day 21-70. It is filed as in vivo, C57BL/6 or mCD40-LMP1 Tg mice. Here is the method: CD40 mediated IL-6 and TNF-alpha production was also evaluated. […] IL-6 in culture supernatants was assessed by ELISA. Mice were assessed 70 days post-immunization with CII/CF or CFA only (or naïve). Some mice received honokiol (3 mg/day) from day 21-70 post-immunization. […] TNF-a in culture supermatants was assessed by ELISA. Mice were assessed 70 days post-immunization with CII/CF or CFA only (or naïve). Some mice received honokiol (3 mg/day) from day 21-70 post-immunization. […] In LMP1 Tg mice, even negative control mice have lowered IL-6 and TNF-alpha responses. However, IL-10 was not affected, as determined by analyzing the role of Honokiol treatment on B cell IL-10 production. […] IL-10 in culture supermatants was assessed by ELISA. Mice were assessed 70 days post-immunization with CII/CF or CFA only (or naïve). Some mice received honokiol (3 mg/day) from day 21-70 post-immunization.

For data set [5], the system named is human promyelocytic leukemic cell line HL-60. The conditions noted are these: cited from earlier work.

As for `C=CCc1ccc(O)c(-c2ccc(O)c(CC=C)c2)c1` [HNK, Honokiol], the values for the TUNEL positive cells with MM.1S cells [1] and in the data set with RPM18226 cells [2] were 38.2% and 41.5%, respectively. In addition, the APO2.7 positive cells was 21.7±3.4% in the data set with MM.1S cells [3] and 32.9±0.6% in the data set on RPM18226 cells [4]. Further, the “APO2.7 positive cells in normal PBMNCs” value with normal PBMNCs is “did not induce APO2.7 positive cells”. The “cells in S-phase” value in the data set with MCF-7 cells (MCF-7, 10 μM) is 20%; in the data set on MCF-7 cells (MCF-7, 30 μM), 20%; with MDA-MB-231 cells (MDA-MB-231, 10 μM), 15%; with MDA-MB-231 cells (MDA-MB-231, 30 μM) it was 10%. The “CD40 mediated IL-6 production” value in the data set on splenic B cells is reported as “CD40 mediated IL-6 production is decreased”. In the data set on splenic B cells, the “CD40 mediated TNF-alpha production” value is listed as “CD40 mediated TNF-alpha production is decreased”. For the same molecule, in data set [5], the IC50 value entry was “less than 100 ng/ml”.
